The record followed here is US20150080438A1, “6,7-Dihydro-5H-benzo[7]annulene derivatives, processes for their preparation, pharmaceutical products comprising them and their use for preparing medicaments” (Bayer Intellectual Property GmbH, priority 2011, published 2015).

This assay addresses T1, oestrogen receptor (ER) (Homo sapiens, UniProt P03372).
T1 construct: These MVLN cells express, along with the functional oestrogen receptor (ER), a reporter construct; endogenous in cells; host or cells: MVLN cells (MCF7 derivative with ER-responsive luciferase reporter)
T1 sequence (P03372 1-595): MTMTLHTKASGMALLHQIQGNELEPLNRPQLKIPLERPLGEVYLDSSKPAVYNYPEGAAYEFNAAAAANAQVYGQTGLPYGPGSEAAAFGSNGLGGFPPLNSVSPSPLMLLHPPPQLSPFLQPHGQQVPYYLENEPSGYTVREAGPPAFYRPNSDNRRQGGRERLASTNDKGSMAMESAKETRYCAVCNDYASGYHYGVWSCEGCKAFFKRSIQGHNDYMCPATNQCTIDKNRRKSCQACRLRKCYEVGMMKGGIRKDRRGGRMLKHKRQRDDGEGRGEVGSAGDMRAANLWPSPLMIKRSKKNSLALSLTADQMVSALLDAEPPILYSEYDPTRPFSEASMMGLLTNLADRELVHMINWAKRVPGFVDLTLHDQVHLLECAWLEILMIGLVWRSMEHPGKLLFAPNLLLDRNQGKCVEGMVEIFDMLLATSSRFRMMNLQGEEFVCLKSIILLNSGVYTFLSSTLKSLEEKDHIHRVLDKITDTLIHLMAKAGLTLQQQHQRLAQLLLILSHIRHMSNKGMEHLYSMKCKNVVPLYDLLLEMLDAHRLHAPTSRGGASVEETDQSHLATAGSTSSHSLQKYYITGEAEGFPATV
The assay is described as follows: Anti-oestrogenic action in MVLN cells (inhibition of estradiol-induced luciferase, transactivation antagonism). The class given is cell-based. The following applies: inhibition of estradiol-induced luciferase activity, read-out: Anti-oestrogenic action in vitro: MVLN transactivation antagonism IC50. From the text:
The anti-oestrogenic action of the claimed pharmacological compounds was investigated in so-called MVLN cells in vitro. MVLN cells are derivatives of the hormone-responsive MCF7 breast cancer cells known by a person skilled in the art. These MVLN cells express, along with the functional oestrogen receptor (ER), a reporter construct, which under ER-activation expresses luciferase. Determination of the activity of the induced luciferase permits a direct conclusion on the oestrogen properties of substances. To investigate the anti-oestrogenic properties of the pharmacological compounds, they were investigated in the presence of oestrogen for their potential for inhibiting the luciferase signal induced by estradiol.
The claimed pharmacological test substances were investigated in MVLN cells for their anti-oestrogenic potential, as described (see Table 2).

For the compound `[O-][S+](CCCN(CCO)CCCCCCC1=C(c2ccccc2)CCCc2cc(O)ccc21)CCCC(F)(F)C(F)(F)F` (racemic) [Example 70, 9-{6-[(2-Hydroxyethyl){3-[(RS)-(4,4,5,5,5-pentafluoropentyl)sulphinyl]propyl}amino]hexyl}-8-phenyl-6,7-dihydro-5H-benzo[7]annulen-3-ol], the IC50 worked out at 2 nM.
With `[O-][S+](CCCN(CCCO)CCCCCCC1=C(c2ccccc2)CCCc2cc(O)ccc21)CCCC(F)(F)C(F)(F)F` (racemic) [Example 72, 9-{6-[(3-Hydroxypropyl){3-[(RS)-(4,4,5,5,5-pentafluoropentyl)sulphinyl]propyl}amino]hexyl}-8-phenyl-6,7-dihydro-5H-benzo[7]annulen-3-ol], the IC50 was determined as 4 nM.
As to `CC(C)(O)CN(CCCCCCC1=C(c2ccccc2)CCCc2cc(O)ccc21)CCC[S+]([O-])CCCC(F)(F)C(F)(F)F` (racemic) [Example 74, 9-{6-[(2-Hydroxy-2-methylpropyl){3-[(RS)-(4,4,5,5,5-pentafluoropentyl)sulphinyl]propyl}amino]hexyl}-8-phenyl-6,7-dihydro-5H-benzo[7]annulen-3-ol], the IC50 came to 3 nM.
With `CCN(CCCCCCC1=C(c2ccccc2)CCCc2cc(O)ccc21)CCC[S+]([O-])CCC(F)(F)F` (racemic) [Example 76, 9-[6-(Ethyl{3-[(RS)-(3,3,3-trifluoropropyl)sulphinyl]propyl}amino)hexyl]-8-phenyl-6,7-dihydro-5H-benzo[7]annulen-3-ol], the half-maximal inhibitory concentration (IC50) was determined as 23 nM.
With `[O-][S+](CCCN(CCO)CCCCCCC1=C(c2ccccc2)CCCc2cc(O)ccc21)CCC(F)(F)F` (racemic) [Example 78, 9-{6-[(2-Hydroxyethyl){3-[(RS)-(3,3,3-trifluoropropyl)sulphinyl]propyl}amino]hexyl}-8-phenyl-6,7-dihydro-5H-benzo[7]annulen-3-ol], the 50% inhibitory concentration (IC50) was 11 nM.
On to `[O-][S+](CCCN(CCCO)CCCCCCC1=C(c2ccccc2)CCCc2cc(O)ccc21)CCC(F)(F)F` (racemic) [Example 80, 9-{6-[(3-Hydroxypropyl){3-[(RS)-(3,3,3-trifluoropropyl)sulphinyl]propyl}amino]hexyl}-8-phenyl-6,7-dihydro-5H-benzo[7]annulen-3-ol], for which the IC50 came out at 9 nM.
With `CC(C)(O)CN(CCCCCCC1=C(c2ccccc2)CCCc2cc(O)ccc21)CCC[S+]([O-])CCC(F)(F)F` (racemic) [Example 82, 9-{6-[(2-Hydroxy-2-methylpropyl){3-[(RS)-(3,3,3-trifluoropropyl)sulphinyl]propyl}amino]hexyl}-8-phenyl-6,7-dihydro-5H-benzo[7]annulen-3-ol], the IC50 was found to be 9 nM.
As to `CN(CCCCCC1=C(c2ccccc2)CCCc2cc(O)ccc21)CCCC[S+]([O-])CCCC(F)(F)C(F)(F)F` (racemic) [Example 84, 9-[5-(Methyl{4-[(RS)-(4,4,5,5,5-pentafluoropentyl)sulphinyl]butyl}amino)pentyl]-8-phenyl-6,7-dihydro-5H-benzo[7]annulen-3-ol], the IC50 worked out at 31 nM.
On to `CCN(CCCCCCC1=C(c2cccc(O)c2)CCCc2cc(O)ccc21)CCC[S+]([O-])CCCC(F)(F)C(F)(F)F` (racemic) [Example 86, 9-[6-(Ethyl{3-[(RS)-(4,4,5,5,5-pentafluoropentyl)sulphinyl]propyl}amino)hexyl]-8-(3-hydroxyphenyl)-6,7-dihydro-5H-benzo[7]annulen-3-ol], for which the IC50 is 1 nM.
As to `[O-][S+](CCCN(CCO)CCCCCCC1=C(c2cccc(O)c2)CCCc2cc(O)ccc21)CCCC(F)(F)C(F)(F)F` (racemic) [Example 87, 9-{6-[(2-Hydroxyethyl){3-[(RS)-(4,4,5,5,5-pentafluoropentyl)sulphinyl]propyl}amino]hexyl}-8-(3-hydroxyphenyl)-6,7-dihydro-5H-benzo[7]annulen-3-ol], the half-maximal inhibitory concentration (IC50) is 1 nM.
As to `[O-][S+](CCCN(CCCO)CCCCCCC1=C(c2cccc(O)c2)CCCc2cc(O)ccc21)CCCC(F)(F)C(F)(F)F` (racemic) [Example 88, 8-(3-Hydroxyphenyl)-9-{6-[(3-hydroxypropyl){3-[(RS)-(4,4,5,5,5-pentafluoropentyl)sulphinyl]propyl}amino]hexyl}-6,7-dihydro-5H-benzo[7]annulen-3-ol], the IC50 was determined as 1 nM.
With `CC(C)(O)CN(CCCCCCC1=C(c2cccc(O)c2)CCCc2cc(O)ccc21)CCC[S+]([O-])CCCC(F)(F)C(F)(F)F` (racemic) [Example 89, 9-{6-[(2-Hydroxy-2-methylpropyl){3-[(RS)-(4,4,5,5,5-pentafluoropentyl)sulphinyl]propyl}amino]hexyl}-8-(3-hydroxyphenyl)-6,7-dihydro-5H-benzo[7]annulen-3-ol] the figure was 2 nM; with `CCN(CCCCCCC1=C(c2cccc(O)c2)CCCc2cc(O)ccc21)CCC[S+]([O-])CCC(F)(F)F` (racemic) [Example 94, 9-[6-(Ethyl{3-[(RS)-(3,3,3-trifluoropropyl)sulphinyl]propyl}amino)hexyl]-8-(3-hydroxyphenyl)-6,7-dihydro-5H-benzo[7]annulen-3-ol], 9 nM.
Regarding `[O-][S+](CCCN(CCO)CCCCCCC1=C(c2cccc(O)c2)CCCc2cc(O)ccc21)CCC(F)(F)F` (racemic) [Example 95, 9-{6-[(2-Hydroxyethyl){3-[(RS)-(3,3,3-trifluoropropyl)sulphinyl]propyl}amino]hexyl}-8-(3-hydroxyphenyl)-6,7-dihydro-5H-benzo[7]annulen-3-ol], the IC50 worked out at 7 nM.
With `[O-][S+](CCCN(CCCO)CCCCCCC1=C(c2cccc(O)c2)CCCc2cc(O)ccc21)CCC(F)(F)F` (racemic) [Example 96, 8-(3-Hydroxyphenyl)-9-{6-[(3-hydroxypropyl){3-[(RS)-(3,3,3-trifluoropropyl)sulphinyl]propyl}amino]hexyl}-6,7-dihydro-5H-benzo[7]annulen-3-ol] the figure was 5 nM.
On to `CC(C)(O)CN(CCCCCCC1=C(c2cccc(O)c2)CCCc2cc(O)ccc21)CCC[S+]([O-])CCC(F)(F)F` (racemic) [Example 97, 9-{6-[(2-Hydroxy-2-methylpropyl){3-[(RS)-(3,3,3-trifluoropropyl)sulphinyl]propyl}amino]hexyl}-8-(3-hydroxyphenyl)-6,7-dihydro-5H-benzo[7]annulen-3-ol], for which the IC50 was found to be 2 nM.
For the compound `CN(CCCCCCC1=C(c2ccccc2)CCCc2c1ccc(O)c2Cl)CCC[S+]([O-])CCCC(F)(F)C(F)(F)F` (racemic) [Example 104, 4-Chloro-9-[6-(methyl{3-[(RS)-(4,4,5,5,5-pentafluoropentyl)sulphinyl]propyl}amino)hexyl]-8-phenyl-6,7-dihydro-5H-benzo[7]annulen-3-ol], the IC50 was 25 nM.
In the case of `COCCCN(CCCCCCC1=C(c2cccc(O)c2)CCCc2cc(O)ccc21)CCC[S+]([O-])CCCC(F)(F)C(F)(F)F` (racemic) [Example 108, 8-(3-Hydroxyphenyl)-9-{6-[(3-methoxypropyl){3-[(RS)-(4,4,5,5,5-pentafluoropentyl)sulphinyl]propyl}amino]hexyl}-6,7-dihydro-5H-benzo[7]annulen-3-ol], the IC50 is 2 nM.
For the compound `CN(CCCCCCC1=C(c2ccc(F)c(O)c2)CCCc2c1ccc(O)c2F)CCCC[S+]([O-])CCC(F)(F)F` (racemic) [Example 120, 4-Fluoro-8-(4-fluoro-3-hydroxyphenyl)-9-[6-(methyl{4-[(RS)-(3,3,3-trifluoropropyl)sulphinyl]butyl}amino)hexyl]-6,7-dihydro-5H-benzo[7]annulen-3-ol], the IC50 amounted to 5 nM.
On to `CN(CCCCCCC1=C(c2ccc(F)c(O)c2)CCCc2cc(O)c(F)cc21)CCC[S+]([O-])CCC(F)(F)C(F)(F)F` (racemic) [Example 122, 2-Fluoro-8-(4-fluoro-3-hydroxyphenyl)-9-[6-(methyl{3-[(RS)-(3,3,4,4,4-pentafluorobutyl)sulphinyl]propyl}amino)hexyl]-6,7-dihydro-5H-benzo[7]annulen-3-ol], for which the IC50 came out at 6 nM.
For the compound `CN(CCCCCCC1=C(c2ccc(F)c(O)c2)CCCc2cc(O)c(F)cc21)CCCC[S+]([O-])CCCC(F)(F)C(F)(F)F` (racemic) [Example 124, 2-Fluoro-8-(4-fluoro-3-hydroxyphenyl)-9-[6-(methyl{4-[(RS)-(4,4,5,5,5-pentafluoropentyl)sulphinyl]butyl}amino)hexyl]-6,7-dihydro-5H-benzo[7]annulen-3-ol], the IC50 was found to be 6 nM.
For the compound `CN(CCCCCCC1=C(c2ccc(F)c(O)c2)CCCc2cc(O)c(F)cc21)CCC[S+]([O-])CCC(F)(F)F` (racemic) [Example 125, 2-Fluoro-8-(4-fluoro-3-hydroxyphenyl)-9-[6-(methyl{3-[(RS)-(3,3,3-trifluoropropyl)sulphinyl]propyl}amino)hexyl]-6,7-dihydro-5H-benzo[7]annulen-3-ol], the IC50 stood at 16 nM.

The IC50 is the concentration that gives 50% inhibition.
